Data published in patent US20260108546A1 (ELI LILLY AND COMPANY, priority 2024, published 2026).

Molecular target: T1, hGIP-R (Homo sapiens, UniProt P48546)
T1 construct: expressed in transfected cells; host or cells: HEK-293 clonal cell lines
T1 sequence (P48546 22-466): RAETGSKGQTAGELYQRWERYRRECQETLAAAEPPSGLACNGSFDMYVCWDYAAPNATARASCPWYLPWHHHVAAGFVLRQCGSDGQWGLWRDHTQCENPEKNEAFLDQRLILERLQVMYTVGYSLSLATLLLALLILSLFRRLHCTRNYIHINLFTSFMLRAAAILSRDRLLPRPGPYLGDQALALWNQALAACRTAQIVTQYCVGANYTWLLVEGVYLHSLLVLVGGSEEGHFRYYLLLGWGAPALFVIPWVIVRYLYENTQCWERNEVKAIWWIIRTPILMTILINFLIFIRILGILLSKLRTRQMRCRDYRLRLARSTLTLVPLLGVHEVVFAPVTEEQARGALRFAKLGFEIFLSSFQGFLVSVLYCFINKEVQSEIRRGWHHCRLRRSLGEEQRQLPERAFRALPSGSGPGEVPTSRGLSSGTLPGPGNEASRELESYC
Test: Functional hGIP-R Assay (cAMP formation, HTRF)
Assay type: cell-based
Settings: for Emax: cAMP efficacy, percent of maximal response to GIP(1-42)OH, 37° C., 0.1% bovine casein, arithmetic mean ± SEM; for EC50: cAMP potency, HEK-293 cells expressing hGIP-R, incubated at 37° C. in the presence of 0.1% bovine casein, geometric mean, read-out: Human GIP-R EC50, nM (SEM, n)
Procedure, shortened: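 Relative EC50 and Emax came from four-parameter logistic fits of cAMP as a percent of the human GIP (1-42) OH maximal response. The cAMP was measured by competitive HTRF after 30 min, 37 °C compound exposure of hGIP-R HEK-293 clones in IBMX (250 μM)-containing medium.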

| Compound | Emax [%] | EC50 [nM] |
| --- | --- | --- |
| Cc1ncc(-c2cc(C(F)(F)F)nn2CC(C)(C)NC(=O)[C@@H](Cc2cnn(C(F)F)c2)N2CC[C@@]3(C[C@@H]3c3ccc(-c4cnc5nn(C6CC6)cc5c4)nc3C)C2=O)cn1 [Example 179, (R)-2-((1R,3R)-1-(6-(2-cyclopropyl-2H-pyrazolo[3,4-b]pyridin-5-yl)-2-methylpyridin-3-yl)-4-oxo-5-azaspiro[2.4]heptan-5-yl)-3-(1-(difluoromethyl)-1H-pyrazol-4-yl)-N-(2-methyl-1-(5-(2-methylpyrimidin-5-yl)-3-(trifluoromethyl)-1H-pyrazol-1-yl)propan-2-yl)propanamide] | 75.9 ± 4.59 | 2.95 |
| COc1nnc(C)cc1-c1cc(C(F)(F)F)nn1CC(C)(C)NC(=O)[C@@H](Cc1cnn(C(F)F)c1)N1CC[C@@]2(C[C@@H]2c2ccc(-c3cnc4nn(C)cc4c3)nc2C)C1=O [Example 180, (R)-3-(1-(difluoromethyl)-1H-pyrazol-4-yl)-N-(1-(5-(3-methoxy-6-methylpyridazin-4-yl)-3-(trifluoromethyl)-1H-pyrazol-1-yl)-2-methylpropan-2-yl)-2-((1R,3R)-1-(2-methyl-6-(2-methyl-2H-pyrazolo[3,4-b]pyridin-5-yl)pyridin-3-yl)-4-oxo-5-azaspiro[2.4]heptan-5-yl)propanamide] | 35.4 ± 1.96 | 7.75 |
| COC(=O)N(C)c1cc([C@H]2C[C@@H]2C(=O)N[C@H](Cc2cnn(C(F)F)c2)C(=O)NC(C)(C)Cn2nc(C(F)(F)F)cc2-c2cc(F)c(=O)n(C)c2)c(F)cc1O [Example 181, Methyl (5-((1S,2S)-2-(((R)-3-(1-(difluoromethyl)-1H-pyrazol-4-yl)-1-((1-(5-(5-fluoro-1-methyl-6-oxo-1,6-dihydropyridin-3-yl)-3-(trifluoromethyl)-1H-pyrazol-1-yl)-2-methylpropan-2-yl)amino)-1-oxopropan-2-yl)carbamoyl)cyclopropyl)-4-fluoro-2-hydroxyphenyl)(methyl)carbamate] | 25.5 ± 2.92 | 23.1 |
| Cn1cc(-c2cc(C(F)(F)F)nn2CC(C)(C)NC(=O)[C@@H](Cc2cnn(C(F)F)c2)NC(=O)[C@H]2C[C@@H]2c2ccc3c(c2)n(C)c(=O)n3C)cc(F)c1=O [Example 182] | 30.4 ± 2.08 | 41.4 |
| Cn1cc(-c2cc(C(F)(F)F)nn2CC(C)(C)NC(=O)[C@@H](Cc2cnn(C(F)F)c2)NC(=O)[C@H]2C[C@@H]2c2ccc3c(Cl)nn(C)c3c2)cc(F)c1=O [Example 183, (1S,2S)-2-(3-chloro-1-methyl-1H-indazol-6-yl)-N-((R)-3-(1-(difluoromethyl)-1H-pyrazol-4-yl)-1-((1-(5-(5-fluoro-1-methyl-6-oxo-1,6-dihydropyridin-3-yl)-3-(trifluoromethyl)-1H-pyrazol-1-yl)-2-methylpropan-2-yl)amino)-1-oxopropan-2-yl)cyclopropane-1-carboxamide] | 4.64 ± 0.608 | 44.9 |

Compounds with a lower EC50, results first:

| Emax [%] | EC50 [nM] | Compound |
| --- | --- | --- |
| 115 ± 5.3 | 0.402 | [2H]C([2H])([2H])n1cc(C[C@H](C(=O)NC(C)(C)Cn2nc(C(F)(F)F)cc2-c2ccc(C(C)(C)O)nc2)N2CC[C@@]3(C[C@@H]3c3ccc(-c4cnc5nc(C6CC6)cn5c4)nc3C)C2=O)cn1 [Example 185, (R)-2-((1R,3R)-1-(6-(2-cyclopropylimidazo[1,2-a]pyrimidin-6-yl)-2-methylpyridin-3-yl)-4-oxo-5-azaspiro[2.4]heptan-5-yl)-N-(1-(5-(6-(2-hydroxypropan-2-yl)pyridin-3-yl)-3-(trifluoromethyl)-1H-pyrazol-1-yl)-2-methylpropan-2-yl)-3-(1-(methyl-d3)-1H-pyrazol-4-yl)propanamide] |
| 104 ± 0.548 | 1.75 | [2H]C([2H])([2H])n1cc(C[C@H](C(=O)NC(C)(C)Cn2nc(C(F)(F)F)cc2-c2cnc(C(C)(C)O)nc2)N2CC[C@@]3(C[C@@H]3c3ccc(-c4cnc5nc(C6CC6)cn5c4)nc3C)C2=O)cn1 [Example 186, (R)-2-((1R,3R)-1-(6-(2-cyclopropylimidazo[1,2-a]pyrimidin-6-yl)-2-methylpyridin-3-yl)-4-oxo-5-azaspiro[2.4]heptan-5-yl)-N-(1-(5-(2-(2-hydroxypropan-2-yl)pyrimidin-5-yl)-3-(trifluoromethyl)-1H-pyrazol-1-yl)-2-methylpropan-2-yl)-3-(1-(methyl-d3)-1H-pyrazol-4-yl)propanamide] |
| 84.6 ± 2.33 | 1.26 | [2H]C([2H])([2H])n1cc(C[C@H](C(=O)NC(C)(C)Cn2nc(C(F)(F)F)cc2-c2cnc(C(C)(C)O)nc2)N2CC[C@@]3(C[C@@H]3c3ccc(-c4cnc5nc(C)cn5c4)cc3Cl)C2=O)cn1 [Example 187, (R)-2-((1S,3R)-1-(2-chloro-4-(2-methylimidazo[1,2-a]pyrimidin-6-yl)phenyl)-4-oxo-5-azaspiro[2.4]heptan-5-yl)-N-(1-(5-(2-(2-hydroxypropan-2-yl)pyrimidin-5-yl)-3-(trifluoromethyl)-1H-pyrazol-1-yl)-2-methylpropan-2-yl)-3-(1-(methyl-d3)-1H-pyrazol-4-yl)propanamide] |
| 110 ± 4.51 | 0.265 | [2H]C([2H])([2H])n1cc(C[C@H](C(=O)NC(C)(C)Cn2nc(C(F)(F)F)cc2-c2ccc(C(C)(C)O)nc2)N2CC[C@@]3(C[C@@H]3c3ccc(-c4cnc5nc(COC)cn5c4)cc3Cl)C2=O)cn1 [Example 188, (R)-2-((1S,3R)-1-(2-chloro-4-(2-(methoxymethyl)imidazo[1,2-a]pyrimidin-6-yl)phenyl)-4-oxo-5-azaspiro[2.4]heptan-5-yl)-N-(1-(5-(6-(2-hydroxypropan-2-yl)pyridin-3-yl)-3-(trifluoromethyl)-1H-pyrazol-1-yl)-2-methylpropan-2-yl)-3-(1-(methyl-d3)-1H-pyrazol-4-yl)propanamide] |
| 61 ± 0.6 | 1.3 | [2H]C([2H])([2H])n1cc(C[C@H](C(=O)NC(C)(C)Cn2nc(C(F)(F)F)cc2-c2ccc(C(C)(C)O)nc2)N2CC[C@@]3(C[C@@H]3c3ccc(-c4cnc5nn(CC)cc5c4)nc3C)C2=O)cn1 [Example 189, (R)-2-((1R,3R)-1-(6-(2-Ethyl-2H-pyrazolo[3,4-b]pyridin-5-yl)-2-methylpyridin-3-yl)-4-oxo-5-azaspiro[2.4]heptan-5-yl)-N-(1-(5-(6-(2-hydroxypropan-2-yl)pyridin-3-yl)-3-(trifluoromethyl)-1H-pyrazol-1-yl)-2-methylpropan-2-yl)-3-(1-(methyl-d3)-1H-pyrazol-4-yl)propanamide] |
| 80.2 ± 6.78 | 1.12 | [2H]C([2H])([2H])n1cc(C[C@H](C(=O)NC(C)(C)Cn2nc(C(F)(F)F)cc2-c2ccc(C(C)(C)O)nc2)N2CC[C@@]3(C[C@@H]3c3ccc(-c4cnc5nn(C6CC6)cc5c4)nc3C)C2=O)cn1 [Example 190, (R)-2-((1R,3R)-1-(6-(2-cyclopropyl-2H-pyrazolo[3,4-b]pyridin-5-yl)-2-methylpyridin-3-yl)-4-oxo-5-azaspiro[2.4]heptan-5-yl)-N-(1-(5-(6-(2-hydroxypropan-2-yl)pyridin-3-yl)-3-(trifluoromethyl)-1H-pyrazol-1-yl)-2-methylpropan-2-yl)-3-(1-(methyl-d3)-1H-pyrazol-4-yl)propanamide] |
